Counter-ions that a name gives are not always drawn.
tested on: Lysozyme (dimer formation with fructose); test: Inhibitory activity on Maillard reaction: formation of lysozyme dimer (lysozyme + fructose, SDS-PAGE, densitometer); format: biochemical; details: lysozyme 10 mg/ml, fructose 100 mM, 0.2M sodium phosphate buffer pH 7.4, 37° C., 3 days
Procedure: The inhibitory activity on Maillard reaction of the compounds of the present invention has confirmed by the screening system mentioned below. Lysozyme (10 mg/ml) and fructose (100 mM) were dissolved in 0.2M sodium phosphatic buffer solution (PH 7.4). The solution was incubated at a temperature of 37° C. for 3 days. A given volume of the reaction solution was separated using SDS-PAGE by the electrophoresis. After the electrophoresis, the SDS-PAGE was dyed by 0.2% Coomassie Brilliant Blue R-250 and then the dimer was determined by densitometer. The compounds of the present invention were added before incubation and the inhibitory activity of them against the formation of the dimer was examined in various concentrations and IC50 values were calculated.

In order of falling IC50:
1. Cc1c(C)c2c(c(C)c1O)CCC(C)(CCCCNC(=O)COc1ccc(NC(=N)N)cc1)O2 (centres unmarked) [22 (a), N-[4-(6-hydroxy-2,5,7,8-tetramethyl-3,4-dihydro-2H-benzo[1,2,-b]pyran-2-yl)butyl]-2-(4-guanidinophenoxy)acetamide hydrochloride]  500 µM
2. Cc1c(C)c2c(c(C)c1O)CCC(C)(CCOc1ccc(NC(=N)N)cc1)O2 (centres unmarked) [Example 5, 4-guanidinophenyl 2-(6-hydroxy-2,5,7,8-tetramethyl-3,4-dihydro-2H-benzo[1,2-b]pyran-2-yl)ethyl ether hydrochloride]  320 µM
3. Cc1c(C)c2c(c(C)c1O)CCC(C)(CCCCNC(=N)NN)O2 (centres unmarked) [Example 8, 1-amino-3-[4-(6-hydroxy-2,5,7,8-tetramethyl-3,4-dihydro-2H-benzo[1,2-b]pyran-2-yl)butyl]guanidine hydroiodide]  300 µM
4. Cc1c(C)c2c(c(C)c1O)CCC(C)(CCOCCNC(=N)NN)O2 (centres unmarked) [Example 26, 2-(3-aminoguanidino)ethyl 2-(6-hydroxy-2,5,7,8-tetramethyl-3,4-dihydro-2H-benzo[1,2-b]pyran-2-yl)ethyl ether hydrochloride]  270 µM
5. CCOC(=O)c1cc(NC(=N)N)cc(C(=O)NCCC2(C)CCc3c(C)c(O)c(C)c(C)c3O2)c1 (centres unmarked) [Example 14, N-[2-(6-hydroxy-2,5,7,8-tetramethyl-3,4-dihydro-2H-benzo[1,2-b]pyran-2-yl)ethyl]-3-ethoxycarbonyl-5-guanidinobenzamide hydrochloride]  220 µM
6. CCOC(=O)c1cc(NC(=N)N)ccc1OCCC1(C)CCc2c(C)c(O)c(C)c(C)c2O1 (centres unmarked) [Example 15, 2-ethoxycarbonyl-4-guanidinophenyl 2-(6-hydroxy-2,5,7,8-tetramethyl-3,4-dihydro-2H-benzo[1,2-b]pyran-2-yl)ethyl ether hydrochloride]  220 µM
7. Cc1c(C)c2c(c(C)c1O)CCC(C)(CCOCCNC(=O)/C=C/c1ccc(NC(=N)N)cc1)O2 (centres unmarked) [Example 21, N-[2-[2-(6-hydroxy-2,5,7,8-tetramethyl-3,4-dihydro-2H-benzo[1,2-b]pyran-2-yl)ethoxy]ethyl]-4-guanidinocinnamamide hydrochloride]  220 µM
8. Cc1c(C)c2c(c(C)c1O)CCC(C)(CCCCNC(=O)Nc1cccc(NC(=N)N)c1)O2 (centres unmarked) [Example 12, 1-[4-(6-hydroxy-2,5,7,8-tetramethyl-3,4-dihydro-2H-benzo[1,2-b]pyran-2-yl)butyl]-3-(3-guanidinophenyl)urea hydrochloride]  200 µM
9. Cc1c(C)c2c(c(C)c1O)CCC(C)(CCSCCOc1ccc(NC(=N)N)cc1)O2 (centres unmarked) [27 (b), 4-guanidinophenyl 2-[2-(6-hydroxy-2,5,7,8-tetramethyl-3,4-dihydro-2H-benzo[1,2-b]-pyran-2-yl)ethylthio]ethyl ether hydrochloride]  190 µM
10. Cc1c(C)c2c(c(C)c1O)CCC(C)(CCN(C)C(=O)/C=C/c1ccc(NC(=N)N)cc1)O2 (centres unmarked) [Example 24, N-methyl-N-[2-(6-hydroxy-2,5,7,8-tetramethyl-3,4-dihydro2H-benzo[1,2-b]pyran-2-yl)ethyl]-4-guanidinocinnamamide hydrochloride]  180 µM
11. Cc1c(C)c2c(c(C)c1O)CCC(C)(CCOCc1ccc(CNC(=N)NN)cc1)O2 (centres unmarked) [Example 4, 4-(3-aminoguamidinomethyl)benzyl 2-(6-hydroxy-2,5,7,8-tetramethyl-3,4-dihydro-2H-benzo[1,2-b]pyran-2-yl)ethyl ether hydroiodide]  150 µM
12. Cc1c(C)c2c(c(C)c1O)CCC(C)(CC=CCCCCNC(=N)NN)O2 (centres unmarked) [Example 23, 2-[7-(3-aminoguanidino)hept-2-enyl]-6-hydroxy-2,5,7,8-tetramethyl-3,4-dihydro-2H-benzo[1,2,-b]pyran hydroiodide]  130 µM
13. Cc1c(C)c2c(c(C)c1O)CCC(C)(CCCCOc1ccc(NC(=N)N)cc1)O2 (centres unmarked) [Example 10, 4-guanidinophenyl 4-(6-hydroxy-2,5,7,8-tetramethyl-3,4-dihydro-2H-benzo[1,2-b]pyran-2-yl)butyl ether hydrochloride]  75 µM
14. Cc1c(C)c2c(c(C)c1O)CCC(C)(CCN(Cc1ccccc1)C(=O)/C=C/c1ccc(NC(=N)N)cc1)O2 (centres unmarked) [24 (a), N-benzyl-N-[2-(6-hydroxy-2,5,7,8-tetramethyl-3,4-dihydro-2H-benzo[1,2-b]pyran-2-yl)ethyl]-4-guanidinocinnamamide hydrochloride]  68 µM
15. Cc1c(C)c2c(c(C)c1O)CCC(C)(CCOc1ccc(CCCNC(=N)NN)cc1)O2 (centres unmarked) [Example 19, 4-[3-(3-aminoguanidino)propyl]phenyl 2-(6-hydroxy-2,5,7,8-tetramethyl-3,4-dihydro-2H-benzo[1,2-b]pyran-2-yl)ethyl ether hydroiodide]  56 µM
16. Cc1c(C)c2c(c(C)c1O)CCC(C)(CCCCNC(=O)/C=C/c1ccc(NC(=N)N)cc1)O2 (centres unmarked) [Example 22, N-[4-(6-hydroxy-2,5,7,8-tetramethyl-3,4-dihydro-2H-benzo[1,2-b]pyran-2-yl)butyl]-4-guanidinocinnamamide hydrochloride]  48 µM
17. Cc1c(C)c2c(c(C)c1O)CCC(C)(CCCCSc1ccc(NC(=N)N)cc1)O2 (centres unmarked) [10 (e), 4-guanidinophenyl 4-(6-hydroxy-2,5,7,8-tetramethyl-3,4-dihydro-2H-benzo[1,2-b]pyran-2-yl)butyl thioether hydrochloride]  36 µM
18. Cc1c(C)c2c(c(C)c1O)CCC(C)(CCCCOc1ccc(NC(=N)N)cc1C(F)(F)F)O2 (centres unmarked) [10 (a), 2-trifluoromethyl-4-guanidinophenyl 4-(6-hydroxy-2,5,7,8-tetramethyl-3,4-dihydro-2H-benzo[1,2-b]-pyran-2-yl)butyl ether hydrochloride]  21 µM
19. Cc1c(C)c2c(c(C)c1O)CCC(C)(CCCCCCOc1ccc(NC(=N)N)cc1)O2 (centres unmarked) [29 (a), 4-guanidinophenyl 6-(6-hydroxy-2,5,7,8-tetramethyl-3,4-dihydro-2H-benzo[1,2-b]pyran-2-yl)-n-hexyl ether hydrochloride]  20 µM
20. CCOC(=O)c1cc(NC(=N)N)cc(C(=O)Nc2ccc(OCCC3(C)CCc4c(C)c(O)c(C)c(C)c4O3)cc2)c1 (centres unmarked) [Example 17, N-[4-[2-(6-hydroxy-2,5,7,8-tetramethyl-3,4-dihydro-2H-benzo[1,2-b]pyran-2-yl)ethoxy]phenyl]-3-ethoxycarbonyl-5-guanidinobenzamide hydrochloride]  13 µM
21. Cc1c(C)c2c(c(C)c1O)CCC(C)(CCCCOc1ccc(NC(=O)/C=C/c3ccc(NC(=N)N)cc3)cc1)O2 (centres unmarked) [Example 9, N-[4-[4-(6-hydroxy-2,5,7,8-tetramethyl-3,4-dihydro-2H-benzo[1,2-b]pyran-2-yl)butoxy]phenyl]-4-guanidinocinnamamide hydrochloride]  6.2 µM
22. Cc1c(C)c2c(c(C)c1O)CCC(C)(CCOc1ccc(CCCOc3ccc(NC(=N)N)cc3)cc1)O2 (centres unmarked) [27 (f), 4-guanidinophenyl 3-[4-[2-(6-hydroxy-2,5,7,8-tetramethyl-3,4-dihydro-2H-benzo[1,2-b]-pyran-2-yl)ethoxy]phenyl]-propyl ether hydrochloride]  5.6 µM
23. Cc1c(C)c2c(c(C)c1O)CCC(C)(CCCCOc1ccc(CCSc3ccc(NC(=N)N)cc3)cc1)O2 (centres unmarked) [28 (c), 4-guanidinophenyl 2-[4-[4-(6-hydroxy-2,5,7,8-tetramethyl-3,4-dihydro-2H-benzo[1,2-b]-pyran-2-yl)butoxy]phenyl]-ethyl thioether hydrochloride]  4.2 µM

— patent US5508450A, “Benzopyran derivatives” (Ono Pharmaceutical Co., Ltd., priority 1989, dated 1996)
